From US11974981B2, “Methods and compositions for treating endometriosis and endometriosis associated symptoms” (The Board of Trustees of the Leland Stanford Junior …, priority 2017, dated 2024)
“Also recorded” adds a separate entry of the source.

Columns and labels:
[1] = tested on: rodent models of inflammatory pain; conditions: earlier work of the inventors; cited from earlier work
[2] = tested on: female Sprague-Dawley rats; experiment: acetaldehyde-induced vaginal hyperalgesia, escape response to vaginal balloon distention; type: in vivo, rat; conditions: Alda-1 1 mg/kg i.p. alone, in the absence of the noxious stimulus
Excerpt: FIG. 1A-1C. Alda-1 mitigates acetaldehyde-induced vaginal hyperalgesia in rats. FIG. 1A Five female Sprague-Dawley rats initially weighing 150-175 g were trained over a period of ˜4 weeks to terminate an escape response from the noxious stimuli produced by a balloon inflated in the vagina. Top image: Rats trained to be accustomed to the testing chamber. Bottom image: The escape response assessed by the rat poking its head into a tube. This response in turn breaks an infrared beam and causes the vaginal balloon to deflate. […] The shaded area is calculated as the area under the curve. n=5 rats/volume FIG. 1C Histogram of vaginal escape response expressed as the area under the curve calculated using standard trapezoid methods. […]
Alda and endonetriosis: Although rodent inflammatory pain models such as carageenan and CFA may represent some aspects of endometriosis, there is a validated rat model of endometriosis-associated pain, which produces signs and painful symptoms similar to those in women (S. McAllister, K. McGinty, D. Resuehr, K. Berkley. Endometriosis-induced vaginal hyperalgesia in the rat: Role of the ectopic growths and their innervation. Pain. 147: 255-264 (2009)). […] The rat is then monitored to determine an escape response, which is assessed by the rodent breaking an infrared beam with its nose; this, in turn, causes the inflated balloon in the vagina to deflate (FIG. 1A). […]

[3] = tested on: homozygous ALDH2*2 knock-in mice; experiment: mouse surgical model of endometriosis, endometrial cyst area, ALDH2*2 knock-in mice; type: in vivo; conditions: ALDH2*2 mice, vs DMSO
Excerpt: (§1) FIG. 2A-2C. Relative to wild type mice, ALDH2*2 mice develop larger endometrial cysts by 3 days after endometriosis surgery. FIG. 2A In a mouse surgical model of endometriosis, three (2 mm×2 mm) uterine horn auto transplants are sutured onto cascading mesenteric arteries which in turn since located outside the uterus develop cysts in the abdomen. FIG. 2B Female wild type (C57/BL6) and ALDH2*2 knock-in mice on the same genetic background 8-10 weeks of age were induced with endometriosis and sacrificed 1, 3, or 28 days later. Endometrial cysts were collected and cyst area was measured (length×width). FIG. 2C Average cyst area was calculated for each group (wild type: blue, ALDH2*2: red) of mice at day 1, 3, and 28. Data are presented as mean±SEM, n=6 mice/group.
(§2) FIG. 3A-3D. Alda-1 reduces endometrial cyst size 3 days and 28 days after endometriosis induction. FIG. 3A. […] FIG. 3B. […]
(§3) Briefly, mice were anesthetized with isoflurane (1-3%) and an off-midline (left side) incision made through the skin and muscle layer to expose the pelvic and abdominal organs. […] On day 1, 3, or 28 after endometriosis induction, mice were sacrificed, endometrial cyst length and width measured to calculate cyst area, and then the average cyst area per group determined.

wild type C57/BL6 mice = experiment: mouse surgical model of endometriosis, endometrial cyst area, wild type mice; type: in vivo; conditions: vs DMSO
Excerpt: as §1, §2, §3

[4] = Alda-1 5 mg/kg subcutaneous Alzet pump for 3 days

For `O=C(NCc1ccc2c(c1)OCO2)c1c(Cl)cccc1Cl` [Alda-1, N-(1,3-benzodioxol-5-ylmethyl)-2,6-dichlorobenzamide], the pain thresholds [1] is listed as “increases pain thresholds”, the “vaginal escape response (area under the curve), effect of compound alone” value [2] is listed as “No effect” and the “average endometrial cyst area” value [3, 4] is listed as “significant reduction; also recorded: significantly reduced”. The “average endometrial cyst area” value ([3]; Alda-1 5 mg/kg subcutaneous Alzet pump for 28 days) was “significant reduction; also recorded: significantly reduced”, the “average endometrial cyst area” value (wild type C57/BL6 mice; [4]) was “significant reduction” and the “average endometrial cyst area” value (wild type C57/BL6 mice; Alda-1 5 mg/kg subcutaneous Alzet pump for 28 days, 5 mg/kg) was “significant reduction; also recorded: significantly reduced”.
